Test systems include A498 renal; EKVX NSCLC; IGROV1 ovarian; NCI-H522 lung; OVCAR-3 ovarian; OVCAR-8 ovarian; SF-268 CNS; U251 CNS; CCRF-CEM leukemia.
Holding throughout (experiment): growth of human tumour cells (NCI), 48 h

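Five compound concentrations were applied to cells in 96-well plates for 48 hours; endpoints were derived by simple linear interpolation of the resulting dose-response curve. GI50 = concentration required for 50% inhibition of growth. Definition used: TGI = concentration required for complete inhibition of growth.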

In the case of `NC1CCCCC1N.O=C1C=C/C(=C(/c2ccc(O)c(Br)c2)c2ccccc2S(=O)(=O)[O-])C=C1Br.O=C1C=C/C(=C(/c2ccc(O)c(Br)c2)c2ccccc2S(=O)(=O)[O-])C=C1Br.[Pt+4]`, the GI50 was 22.1 µM in the assay on A498 renal; 93 µM with EKVX NSCLC; 4.17 µM with IGROV1 ovarian; 1900 nM in the assay on NCI-H522 lung; 13.8 µM in the assay with OVCAR-3 ovarian; 1270 nM with OVCAR-8 ovarian. Moreover, the GI50 in the assay with SF-268 CNS is 885 nM; in the assay with U251 CNS, 5.21 µM. The TGI was over 100 µM in the assay with A498 renal; over 100 µM in the assay on EKVX NSCLC; over 100 µM in the assay on IGROV1 ovarian; 22.6 µM with NCI-H522 lung; over 100 µM with OVCAR-3 ovarian; over 100 µM in the assay with OVCAR-8 ovarian. The TGI in the assay on SF-268 CNS and in the assay with U251 CNS was over 100 µM each time.

Turning to `CCOC(=O)C(CCC(N)=O)(CCC(=O)OC)C(=O)OCC`, the TGI in the assay on A498 renal, in the assay on EKVX NSCLC, in the assay on IGROV1 ovarian, in the assay on NCI-H522 lung, in the assay on OVCAR-3 ovarian and with OVCAR-8 ovarian was over 100 µM in each case. Besides, the TGI in the assay on SF-268 CNS and with U251 CNS was over 100 µM each time.

Turning to `COC(=O)c1ncc2c(=O)[nH]c3ccccc3c2c1C(=O)OC`, the TGI with A498 renal, in the assay on CCRF-CEM leukemia, in the assay with EKVX NSCLC, in the assay on IGROV1 ovarian, in the assay on OVCAR-3 ovarian and in the assay with OVCAR-8 ovarian was over 100 µM in each case. Besides, the TGI with SF-268 CNS was over 100 µM.

Take `Cc1ccc(/C=C(\NC(=O)c2ccccc2)c2nc3ccccc3[nH]2)cc1`: the TGI in the assay on A498 renal, with EKVX NSCLC, with IGROV1 ovarian, in the assay on NCI-H522 lung, with OVCAR-3 ovarian and with OVCAR-8 ovarian was over 100 µM each time. Besides, the TGI with SF-268 CNS and in the assay on U251 CNS was over 100 µM throughout.

With `CC1=NN(C(=O)Nc2ccc(Cl)cc2)C(=O)C2CCC(=O)N12` (stereo unspecified), the TGI with A498 renal, in the assay on CCRF-CEM leukemia, in the assay on EKVX NSCLC, in the assay with IGROV1 ovarian, in the assay on OVCAR-3 ovarian and with OVCAR-8 ovarian was over 100 µM in each case. The TGI in the assay with SF-268 CNS and in the assay on U251 CNS was over 100 µM in each case.

Take `CCOC(=O)C1=C(C)NC2=C(C(=O)N(c3ccccc3)C2c2ccccc2)C1c1ccccc1` (stereo unspecified): the TGI in the assay with CCRF-CEM leukemia is 58 µM; with EKVX NSCLC it was 44.2 µM; in the assay on IGROV1 ovarian, 40.8 µM; with NCI-H522 lung it was 25.9 µM; with OVCAR-3 ovarian, 25.4 µM; in the assay on OVCAR-8 ovarian, 53.4 µM. The TGI with SF-268 CNS turned out to be 33.7 µM; in the assay on U251 CNS, 29.3 µM.

As to `CC(C)(C)C(=O)Nc1cccc2oc(-c3ccccc3)cc12`, the TGI with A498 renal, in the assay with CCRF-CEM leukemia, in the assay on EKVX NSCLC, in the assay with IGROV1 ovarian, with OVCAR-3 ovarian and in the assay on OVCAR-8 ovarian was over 100 µM each time. Moreover, the TGI in the assay on U251 CNS was over 100 µM.

As to `COc1ccc(C2ON(c3ccccc3)CC=C2C)cc1` (stereo unspecified), the TGI with CCRF-CEM leukemia was over 100 µM; with EKVX NSCLC it was over 100 µM; in the assay on IGROV1 ovarian it was over 100 µM; in the assay with NCI-H522 lung it was 99.5 µM; with OVCAR-3 ovarian it was over 100 µM; in the assay on OVCAR-8 ovarian, over 100 µM. The TGI in the assay with SF-268 CNS and in the assay on U251 CNS was over 100 µM each time.

Consider `Oc1ccc2ccccc2c1N=Nc1cc(Cl)ccc1Cl`, for which the TGI with CCRF-CEM leukemia was over 50 µM; with EKVX NSCLC, 20.6 µM; in the assay on IGROV1 ovarian it was 18.1 µM; with NCI-H522 lung it was over 50 µM; with OVCAR-3 ovarian it was over 50 µM; in the assay on OVCAR-8 ovarian, 30.2 µM. The results for the TGI in the assay on SF-268 CNS and in the assay on U251 CNS were over 50 µM and 22 µM, respectively.

Take `CC(=O)O[C@H]1CCN2C(=O)C=CC(OCc3ccccc3)C12` (stereo partly specified): the TGI with A498 renal, in the assay with CCRF-CEM leukemia, with EKVX NSCLC, with IGROV1 ovarian, with OVCAR-3 ovarian and in the assay on OVCAR-8 ovarian was over 100 µM in each case. The TGI in the assay on SF-268 CNS and in the assay on U251 CNS was over 100 µM throughout.

For `Cc1[nH]c2ccccc2c1CC/C(=N\Nc1ccccc1)c1ccccc1`, the TGI in the assay on A498 renal, with CCRF-CEM leukemia, in the assay with EKVX NSCLC, in the assay on IGROV1 ovarian, in the assay with OVCAR-3 ovarian and in the assay with OVCAR-8 ovarian was over 100 µM each time. Further, the TGI in the assay on U251 CNS was over 100 µM.

Take `O=C1C(=C([O-])c2ccccc2)C(=O)c2ccccc21.O=C1C(=C([O-])c2ccccc2)C(=O)c2ccccc21.[Mn+2]`: the GI50 in the assay with EKVX NSCLC is over 100 µM; in the assay with IGROV1 ovarian, over 100 µM; in the assay with OVCAR-3 ovarian it was 40.5 µM; in the assay with OVCAR-8 ovarian, over 100000 nM. In addition, the TGI with EKVX NSCLC, in the assay with IGROV1 ovarian, with OVCAR-3 ovarian and with OVCAR-8 ovarian was over 100 µM each time.

Values taken from PubChem BioAssay (NCI).
